# System: CD5+/CD19+ cells of PBMCs from primary chronic lymphocytic leukemia (CLL) patients
# Experiment: Human CLL apoptosis assay (AnnexinV+ cells by flow cytometry)
# Format: cell-based
# Details: no HS-5 co-culture
# Description: Peripheral blood mononuclear cells (PBMCs) were isolated from primary chronic lymphocytic leukemia (CLL) patients and cultured for 3-5 hours in Lymphocyte Growth Medium (LGM, RPMI 1640, 1 mM Sodium Pyruvate, 10 mM HEPES, pH 7.4, 100 U/mL Penicillin/100 μg/mL Streptomycin, 55 μM β-Mercaptoethanl, 2 mM GlutaMAX, and 10% FBS) at 37° C. with 5% CO2. Cells were then centrifuged at room temperature for 10 minutes and resuspended in an appropriate volume of LGM for plating (maximum cell density=3.12×10^6/ml). Final assay wells were set up in U-bottom 96-well tissue culture plates with HS-5 co-culture (plates were coated with 3×10^4 HS-5 cells in 100 μl overnight at 37° C. prior to the assay) or no co-culture.
# Cell suspensions (80 μL, 2.5×10^5-9.4×10^4) were added to the plate and incubated for 1 hour prior to stimulation with αIgM/αIgG (7.8 μg/well) and αCD40 (4 μg/well). Cells were incubated with compounds for about 66 hours at 37° C. After incubation, the cells were transferred to deeper plates and washed once with 500 μL of 1× PBS^+/+. Cells were resuspended in Invitrogen's aqua Live/Dead reagent according to manufacturer's directions and incubated 30 minutes on ice. Aqua Live/Dead was quenched with an equal volume of PBS^+/+ with 4% FBS (FACS buffer). Cells were centrifuged and labeled with αCD5-PE, αCD19-BV421 and AnnexinV-APC in a total volume of 85 μL and incubated 30 minutes on ice. After labeling, cells were rinsed twice in FACS buffer and then fixed with BD Fixation buffer for 30 minutes on ice. Cells were rinsed twice with FACS buffer and analyzed.
# For the apoptosis analysis, flow cytometric sampling of 5000-20,000 total events were collected on a BD FACS Canto II instrument using a high throughput screen (HTS) autosampler for analysis of apoptosis. CD5^+/CD19^+ cells were identified and subsequently gated for AnnexinV^+/LiveDead and AnnexinV^+/LiveDead^+ populations.
# Flow cytometric data were extracted to a flow cytometry standard (fcs) file. Average percentages of AnnexinV^+ cells were determined for the positive control and negative wells (no compound). The percentage of AnnexinV^+ cells represented the percentage or levels of apoptosis. Similar results were obtained for CLL cells with HS-5 co-culture.
smiles,measurement,setting,value
"c1cn2cc(-c3ccc4cn[nH]c4c3)nc(Nc3ccc(N4CCOCC4)cc3)c2n1 [Compound A1, 6-(1H-indazol-6-yl)-N-(4-morpholinophenyl)imidazo[1,2-a]pyrazin-8-amine]",Percentage of the AnnexinV^+ cells,"Sample 1, 30 nM Compound A1, 0 nM Compound B1",12%
same,Percentage of the AnnexinV^+ cells,"Sample 1, 100 nM Compound A1, 0 nM Compound B1",12%
same,Percentage of the AnnexinV^+ cells,"Sample 1, 300 nM Compound A1, 0 nM Compound B1",16%
same,Percentage of the AnnexinV^+ cells,"Sample 2, 30 nM Compound A1, 0 nM Compound B1",9%
same,Percentage of the AnnexinV^+ cells,"Sample 2, 100 nM Compound A1, 0 nM Compound B1",12%
same,Percentage of the AnnexinV^+ cells,"Sample 2, 300 nM Compound A1, 0 nM Compound B1",20%
same,Percentage of the AnnexinV^+ cells,"Sample 3, 30 nM Compound A1, 0 nM Compound B1",13%
same,Percentage of the AnnexinV^+ cells,"Sample 3, 100 nM Compound A1, 0 nM Compound B1",15%
same,Percentage of the AnnexinV^+ cells,"Sample 3, 300 nM Compound A1, 0 nM Compound B1",18%
"CC1(C)CCC(CN2CCN(c3ccc(C(=O)NS(=O)(=O)c4ccc(NCC5CCOCC5)c([N+](=O)[O-])c4)c(Oc4cnc5[nH]ccc5c4)c3)CC2)=C(c2ccc(Cl)cc2)C1 [Compound B1, (4-(4-{[2-(4-chlorophenyl)-4,4-dimethylcyclohex-1-en-1-yl]methyl}piperazin-1-yl)-N-({3-nitro-4-[(tetrahydro-2H-pyran-4-yl-methyl)amino]phenyl}sulfonyl)-2-(1H-pyrrolo[2,3-b]pyridin-5-yl-oxy)benzamide)]",Percentage of the AnnexinV^+ cells,"Sample 1, 0 nM Compound A1, 0.8 nM Compound B1",13%
same,Percentage of the AnnexinV^+ cells,"Sample 1, 0 nM Compound A1, 1.6 nM Compound B1",15%
same,Percentage of the AnnexinV^+ cells,"Sample 1, 0 nM Compound A1, 3.1 nM Compound B1",15%
same,Percentage of the AnnexinV^+ cells,"Sample 1, 0 nM Compound A1, 6.3 nM Compound B1",16%
same,Percentage of the AnnexinV^+ cells,"Sample 1, 0 nM Compound A1, 12.5 nM Compound B1",19%
same,Percentage of the AnnexinV^+ cells,"Sample 1, 0 nM Compound A1, 25 nM Compound B1",24%
same,Percentage of the AnnexinV^+ cells,"Sample 1, 0 nM Compound A1, 50 nM Compound B1",31%
same,Percentage of the AnnexinV^+ cells,"Sample 1, 0 nM Compound A1, 100 nM Compound B1",36%
same,Percentage of the AnnexinV^+ cells,"Sample 1, 0 nM Compound A1, 200 nM Compound B1",46%
same,Percentage of the AnnexinV^+ cells,"Sample 2, 0 nM Compound A1, 0.8 nM Compound B1",10%
same,Percentage of the AnnexinV^+ cells,"Sample 2, 0 nM Compound A1, 1.6 nM Compound B1",18%
same,Percentage of the AnnexinV^+ cells,"Sample 2, 0 nM Compound A1, 3.1 nM Compound B1",35%
same,Percentage of the AnnexinV^+ cells,"Sample 2, 0 nM Compound A1, 6.3 nM Compound B1",55%
same,Percentage of the AnnexinV^+ cells,"Sample 2, 0 nM Compound A1, 12.5 nM Compound B1",76%
same,Percentage of the AnnexinV^+ cells,"Sample 2, 0 nM Compound A1, 25 nM Compound B1",89%
same,Percentage of the AnnexinV^+ cells,"Sample 2, 0 nM Compound A1, 50 nM Compound B1",93%
same,Percentage of the AnnexinV^+ cells,"Sample 2, 0 nM Compound A1, 100 nM Compound B1",95%
same,Percentage of the AnnexinV^+ cells,"Sample 2, 0 nM Compound A1, 200 nM Compound B1",97%
same,Percentage of the AnnexinV^+ cells,"Sample 3, 0 nM Compound A1, 0.8 nM Compound B1",16%
same,Percentage of the AnnexinV^+ cells,"Sample 3, 0 nM Compound A1, 1.6 nM Compound B1",21%
same,Percentage of the AnnexinV^+ cells,"Sample 3, 0 nM Compound A1, 3.1 nM Compound B1",33%
same,Percentage of the AnnexinV^+ cells,"Sample 3, 0 nM Compound A1, 6.3 nM Compound B1",50%
same,Percentage of the AnnexinV^+ cells,"Sample 3, 0 nM Compound A1, 12.5 nM Compound B1",69%
same,Percentage of the AnnexinV^+ cells,"Sample 3, 0 nM Compound A1, 25 nM Compound B1",89%
same,Percentage of the AnnexinV^+ cells,"Sample 3, 0 nM Compound A1, 50 nM Compound B1",97%
same,Percentage of the AnnexinV^+ cells,"Sample 3, 0 nM Compound A1, 100 nM Compound B1",99%
same,Percentage of the AnnexinV^+ cells,"Sample 3, 0 nM Compound A1, 200 nM Compound B1",100%

# Source: patent US20180117052A1, “COMBINATION THERAPIES FOR TREATING CANCERS” (Gilead Scienes, Inc., priority 2015, published 2018)
